From patent publication US20160166569A1, “METHOD FOR TREATING SKIN THICKENING” (GALDERMA RESEARCH & DEVELOPMENT, priority 2013, published 2016)
Like-named read-outs stand apart in the source and are kept apart here.

Tested on: UV-induced skin thickening
Conditions: for other skin disorders induced by UV-irradiation (low grade of erythema or flaking, white raised area on skin, wrinkling): compared to vehicle control
Description: Albino hairless SKHI-hr mice (36/sex/group) were treated for 40 weeks with UVR and brimonidine gel or vehicle according to the design in Table 11. […] Topical treatments were performed approximately one hour before UVR on Monday, Wednesday and Friday of each week and approximately one hour after UVR Tuesday and Thursday of each week.
N/N=Total number of observations/number of mice with observation

Brc1c(NC2=NCCN2)ccc2nccnc12 [brimonidine, (5-bromo-quinoxalin-6-yl)-(4,5-dihydro-1H-imidazol-2-yl)-amine]
UV-induced skin thickness, statistical effect (0.18% (w/w) topical): did not statistically reduce
incidence of skin thickening compared to the UV control group (0.18% (w/w) topical): observably lower
UV-induced skin thickness, statistical effect compared to the UV control group (1% (w/w) topical): statistically reduced
other skin disorders induced by UV-irradiation (low grade of erythema or flaking, white raised area on skin, wrinkling) (1% (w/w) topical): reduced
UV-induced skin thickness, statistical effect compared to the UV control group (2% (w/w) topical): statistically reduced
other skin disorders induced by UV-irradiation (low grade of erythema or flaking, white raised area on skin, wrinkling) (2% (w/w) topical): reduced
skin thickening or other skin disorders (mice exposed to UV radiation, summary statement): significant reduction
UV-induced skin thickening (topical application at 0.18%, 1% and 2% (w/w), UVR 600 RBU/week): dose-dependent reduction
